Test results: patent US20030017976A1, “Therapeutic properties of liposome-encapsulated immunomodulators” (priority 1998, published 2003)

Tests used:
[1] = tested on: tumor cells; test: Macrophage-mediated tumor cytotoxicity, target cells not named; format: cell-based; details: available in MLV to 1×10^5 cells
Experimental: Cytotoxicity was assayed by measuring release of radioactivity from target cell DNA as described previously (Dong Z, et al. J Exp Med (1993) 177:1071-7). Briefly, tumor target cells in their exponential growth phase were incubated in medium containing 0.25 μCi/ml of [^3H]TdR (sp. Act. 2 Ci/mmol) (ICN Biomedicals, Inc., Irvine, Calif.) for 24 h. The cells were washed three times with HBSS to remove unbound radioactivity and then harvested by trypsinization (0.25% trypsin in 0.02% EDTA), washed, and resuspended in medium. Cells were plated (at 1×10^4/well) into wells containing control or test macrophages to achieve an E/T cell ratio of 10:1. At this density, macrophages incubated in medium (control) were not cytotoxic to neoplastic cells (Weinstein SL, et al. Proc Natl Acad Sci USA (1991) 88:4148-52; Dong Z, et al. JLeukoc Biol (1993) 53:53-60). […] The lysate was harvested with harvester 96 (Tomtec, Orange, Conn.) and counted for residual radioactivity in a liquid scintillation counter. Macrophage-mediated cytotoxicity was calculated as follows: […]
Efficient activation of macrophages by LPS requires priming by IFN-γ (Saiki I, et al. J Immunol (1985) 135:684-8). […] Tumor cytotoxicity was measured 72 h after the addition of radiolabeled tumor cells to the activated macrophages. […]

[2] = tested on: CT-26P colon carcinoma; test: Combination therapy of CT-26P colon carcinoma with CPT-11 and oral liposomal JBT3002; format: in vivo, mouse; details: day 17
Experimental: This course of therapy was repeated weekly for about three weeks prior to tissue harvest. Experimental Groups/Procedures: 40 Balb/c mice were divided into 8 groups of 5 mice each. On day 0, the spleens of the mice were injected with 15,000 cultured CT-26P cells. The groups were then treated as follows: The spleens of Balb/c mice were injected with 15,000 cultured CT-26P colon carcinoma cells on day 0. […] Treated mice received two weeks of chemotherapy and three weeks of the macrophage activator. Tissues were harvested on day 17. The spleens and livers were weighed, the extent of metastasis was graded (denoted below) and histology prepared.

[3] = tested on: peritoneal exudate macrophages (PEM); test: Nitrite (NO) production by mouse peritoneal exudate macrophages; format: cell-based; details: available to 1×10^5 PEM
Experimental: Peritoneal exudate macrophages (PEM) were collected by peritoneal lavage from mice given an intraperitoneal injection of 2.0 ml of thioglycollate broth (Baltimore Biological Laboratory, Cockeysville, Md.) 4 days before harvest (Dong Z, O'Brian C A, et al. J Leukoc Biol (1993) 53:53-60; Xie K, Huang S, et al. Cancer Res (1995) 55:3123-31). The PEM were washed in Ca^+2- an Mg^2+-free HBSS and resuspended in serum-free medium: 1×10^5 cells were plated into each 38-mm^2 well of 96-2311 culture plates (Falcon Plastics, Oxnard, Calif.). After a 90-min incubation, the nonadherent cells were removed by washing with medium. More than 98% of the adherent cell populations were macrophages according to morphology and phagocytic criteria (Saiki I, et al. J Immunol (1985) 135:684-8). […] After treatment, the cultures were washed and macrophage-mediated cytotoxicity against different tumor targets was determined. […]
Nitrite accumulation in the culture supernatant was measured in a colorimetric assay as described previously (Ding A E, et al. J Immunol (1988) 141:2407-12). […] The mixtures were incubated 10 min with shaking, and A540 was measured with the use of a microplate reader (Model 3550; Bio-Rad Corp., San Francisco, Calif.). The concentration of nitrite was determined by comparing it with a standard solution of sodium nitrite in medium.

[4] = tested on: human blood monocytes; test: ELISAs for TNF-α, IL-1β and IL-6 in human blood monocytes; format: cell-based
Experimental: Blood-cells buff coats were obtained on the day of collection from the Gulf Coast Regional Blood Center (Houston, Tex.). The buffy coats were diluted with HBSS and layered on to 15 ml of prescreened entotoxin-free lymphocyte separation medium (Ficoll-Hypaque; density: 1.077). After 10 min of centrigugation at 1500×g, the mononuclear fractions were collected, washed once, and resuspended in 20 ml of elutriation medium (2% human albumin-100 U/mi penicillin and 100 μg/ml streptomycin in PBS). Monocyte-rich fractions were isolated by countercurrent elutriation using a JE-6B elutriation rotator (B3eckman) as described in detail previously (Fidler, I. et al. Prog. Clin. Biol. Res. (1989) 288:169). At a speed of 3000 rpm and flow rate of 41 ml/min, the monocyte fraction was obtained; it contained >90-95% monocytes as identified by nonspecific esterase staining morphological examination; they were >95% viable as measured by the trypan blue exclusion test. The cells were incubated in serum-free EMEM for 18 h prior to assays.
After overnight incubation in serum-free EMEM, monocytes plated at the density of 1×10^5/38-mm^2well /200 μl of EMEM (96-well plates) were treated as indicated in the Results section. The culture supernatants were harvested and used immediately or stored at −70° C. The supernatants were diluted at 1:5 or 1:10 and assayed for cytokines using ELISA kits according to the manufacturer's instructions.

N-hexadecanol-S-[2(R)-3-diodecanoyloxypropyl]-L-cysteinyl-L-alanyl-D-isoglutaminyl-glycyl-taurine sodium salt [JBT3002]
minimal concentration of JBT3002 for significant activation of tumoricidal properties in PEM [1]: 1.5 ng | Spleen Weights, mean ([2]; oral JBT3002 1 μg/dose in PC liposomes 3x/week alone): 1.137 ± 0.628 grams | Liver Weights, mean ([2]; oral liposomal JBT3002 1 μg/dose 3x/week alone): 1.842 ± 0.498 grams | minimal concentration of JBT3002 required to generate significant levels of NO (20 μM) [3]: 0.12 to 0.15 ng | incubation time at which TNF-α protein was detected ([4]; free-form JBT3002 1 ng/ml or MLV-JBT3002 100 nmol/well of 1 mg/300 μmol lipid): 2 h | concentration range inducing TNF-α production ([4]; monocytes treated for 8 h): 0.001 to 10 ng/mL | serum dependence of cytokine production ([4]; serum-free EMEM vs 5% FBS): not significantly altered in the absence of serum
